Test results from patent US20040097534A1, “Composition for the protection and regeneration of nerve cells containing berberine derivatives” (EUGENBIO INC., priority 2001, published 2004).
“And” between values parts separate entries of the source, which are not always exact repeats. Identical values can stand only once. “Also recorded” adds a separate entry of the source.

Tests used:
sciatic nerves = test: Regeneration of crushed sciatic nerves (axons, myelin sheaths); type: in vivo, Sprague-Dawley white rat; details: for number of axons longer than 300 μm / number of myelin sheaths longer than 200 μm: berberine intraperitoneal
Experimental: After a Sprague-Dawley white rat (male, weighing about 200 g) was anesthetized with pentobarbital (50 mg/kg), the left sciatic nerve was exposed at the sciatic notch. Subsequently, all nerve fibers except the artery in the sciatic nerve were cut, or both sides of nerve fibers were tied using #9 blood vessel suture, and then the center of the nerve fibers were cut using iridectomy scissors. In a crush model, nerve fibers were thoroughly crushed twice using a crush clip. After nerve fibers were injured, proximal stumps and distal stumps were obtained over various time intervals (6 hours, 1 day, 3 day, 7 day, 14 day, 21 day and 28 day), respectively, before testing. For comparison, the right sciatic nerve was used as a control group.
After a white rat was anesthetized, its sciatic nerves were exposed and crushed. PBS or berberine was intraperitoneally injected into the rat. 1 week, 2 weeks and 4 weeks after suturing, nerve regeneration was observed. The rat was perfused and then sciatic nerves were obtained from the distal stump. After the obtained sciatic nerves were cryosected to a thickness of 7-10 μm, cryosected sciatic nerves were double-stained using beta-tubulin isotypeIII (cy3, red), which is an axon marker, and MBP ([…], cy2, green) antibody, which is a differentiation (myelin) marker of Schwann cells. It was observed under a confocal microscope that axons (see, Table 11) were longer than 300 μm and myelin sheaths (see, Table 12) were longer than 200 μm (see, FIGS. 13 to 15, 19a and 19b).

SH-SY5Y cells = test: Neurite regeneration in SH-SY5Y cells; type: cell-based, human
Experimental: Thereafter, the culture was treated with berberine and further cultured for 2 days. The cultured cells were immunostained with nerve cell-specific labeled molecule, and then the number of cells having neurites longer than cell bodies was counted under a confocal microscope. A positive control was treated with bFGF under the same condition as described above to induce the differentiation into nerve cells. In addition, the neuroregenerative effect was examined after berberine together with bFGF was treated. The differentiation degree was measured by double-staining neurites with nerve cell-specific labeled molecule (anti-neurofilament antibody) and FITC-labeled secondary antibody (green), followed by staining cell nuclei with propidium iodide (red). In order to examine the effect of berberine on neurite regeneration, SH-SY5Y cells were used as differentiated nerve cell lines. Retinoic acid inducing neurite growth was used as a positive control.

[1] = system: nerve cells in CA1, dentate gyrus and entorhinal cortex; test: Animal model for dementia (ibotenic acid into entorhinal cortex), calbindin-positive neuron count; type: in vivo, rat
Experimental: After white rat brain was fixed with a stereotaxic frame, 1.5 μl (1 mg/ml) of ibotenic acid and PBS, or 1.5 μl (1 mg/ml) of berberine was injected into the entorhinal cortex region using a microinjector to prepare a model for dementia. […]
Brain was fixed with 4% paraformaldehyde and cryosected to a thickness of 40 μm, and then the cryosected brain was permeablized with 0.5% Triton X-100 for 20 minutes and blocked using 15% blocking serum for 2 hours. After reacting with anti-calbindin antibody at a temperature 4° C. for 16 hours and then further reacting with FITC-labeled secondary antibody or rhodamin (TRITC)-labeled secondary antibody for 1 hour, the cells were fixed on a slide before examining under a confocal microscope.
As an animal model for dementia, ibotenic acid was microinjected into the entorhinal cortex of adult rat brain using a stereotaxic frame.
First, an adult rat was anesthetized, and its head was fixed with a stereotaxic frame. Subsequently, 1.5 μl (1 mg/ml) of ibotenic acid was injected into the entorhinal cortex region to prepare a model for dementia, and then berberine was injected into the same site. 2 weeks after operation, brain tissue sections were counter-stained with hematocylin to examine apoptosis and protective effect. After fluorescence-staining the cells, regions used for cell count were represented as squares (FIG. 14). In addition, the cells were fluorescence-stained with calbindin antibody, a nerve-specific marker, to examine nerve cell survival (see, Tables 8 to 10, FIGS. 11 and 12).

PC12 cells = test: MTT assay, PC12 survival under dexamethasone (glucocorticoid) stress; type: cell-based, rat
Experimental: Cell injuries under condition of serum deprivation-induced stress and oxidative stress were measured by MTT assay. For MTT assay, Cells were seeded into N2 medium in an amount of 7.5×10^3 cells, and then a neurotoxin or a nerve growth factor was added thereto to differentiate the cells and then 0.1 volume of 4 mg/ml MTT was further added. The mixture was stored at 37° C. for 3-4 hours. After 100 μl of solubilization buffer was added to the mixture and then stored for 24 hours, O.D. values were measured by ELISA assay.
Glucocorticoids are hormones secreted from the adrenal glands, and involve in a variety of metabolic processes including glycometabolism. In particular, stress causes release of glucocorticoids to reduce cell divisions of neuronal stem cells in the brain and induce apoptosis of nerve cells. Therefore, PC12 cells were treated with dexamethasone, a glucocorticoid derivative, to examine the effect of berberine against apoptosis of nerve cells. 3 hours after treatment with berberine, dexamethasone (1) was added to a culture solution and incubated for 2 days to induce neuroregeneration (see, Table 5 and FIG. 5b).

[2] = Ibotenic Acid + Berberine, 2 weeks after operation
[3] = berberine injected after ibotenic acid
[4] = N2 + dexamethasone + berberine 0.25 μg/ml
[5] = N2 + dexamethasone + berberine 1.5 μg/ml
[6] = N2 + dexamethasone + berberine 3 μg/ml

## COc1ccc2cc3[n+](cc2c1OC)CCc1cc2c(cc1-3)OCO2 [Berberine, 7,8,13,13a-tetradihydro-9,10-dimethoxy-2,3-(methylenedioxy) berbinium]
Sciatic nerves; 1 week
  number of myelin sheaths longer than 200 μm, increase: doubled
Sciatic nerves; 1 week after operation
  effect on axonal growth and the regeneration of myelin sheaths: not great
Sciatic nerves; 1 week, PBS = 14.5
  number of axons longer than 300 μm: 24.6
Sciatic nerves; 1 week, PBS = 16.5
  number of myelin sheaths longer than 200 μm: 35
Sciatic nerves; 2 weeks, PBS = 20.5
  number of axons longer than 300 μm: 32.3
Sciatic nerves; 2 weeks, PBS = 43
  number of myelin sheaths longer than 200 μm: 88.6
Sciatic nerves; 4 weeks
  number of axons (neurites) longer than 300 μm, increase: doubled
  number of myelin sheaths longer than 200 μm, increase: 3 times
SH-SY5Y cells; berberine
  length of neurites: lengthened the length of neurites
  total number of nerve cells, increase: increased two times; also recorded: doubled
SH-SY5Y cells; berberine 0.25 μg/ml
  Average (%) of differentiated cells: 63.34%
  Number of differentiated cells: 26.51
  total average cell numbers: 39.75
SH-SY5Y cells; berberine 1.5 μg/ml
  Average (%) of differentiated cells: 71.04%
  Number of differentiated cells: 27.89
  total average cell numbers: 38.80
SH-SY5Y cells; berberine 3 μg/ml
  Average (%) of differentiated cells: 73.95%
  Number of differentiated cells: 28.64
  total average cell numbers: 38.60
[1]; Berberine alone
  cell number (%) relative to Ibotenic Acid, CA, average: 311%
  cell number (%) relative to Ibotenic Acid, DG, average: 204%
  cell number (%) relative to Ibotenic Acid, ENT, average: 225%
  cell number relative to Ibotenic Acid average = 100, CA (individual animals #1-#3): 355 and 257 and 320
  cell number relative to Ibotenic Acid average = 100, DG (individual animals #1-#3): 229 and 189 and 195
  cell number relative to Ibotenic Acid average = 100, ENT (individual animals #1-#3): 237 and 208 and 229
  cell number, CA (individual animals #1-#3): 174 and 126 and 157
  cell number, CA, AVR: 152.3
  cell number, DG (individual animals #1-#3): 421
  cell number, DG, AVR: 375.3
  cell number, ENT (individual animals #1-#3): 173 and 152 and 167
  cell number, ENT, AVR: 164
[1]; Ibotenic Acid + Berberine
  cell number (%) relative to Ibotenic Acid, CA, average: 278%
  cell number (%) relative to Ibotenic Acid, DG, average: 190%
  cell number (%) relative to Ibotenic Acid, ENT, average: 126%
  cell number relative to Ibotenic Acid average = 100, CA (individual animals #1-#3): 231 and 337 and 267
  cell number relative to Ibotenic Acid average = 100, DG (individual animals #1-#3): 221 and 157 and 191
  cell number relative to Ibotenic Acid average = 100, ENT (individual animals #1-#3): 129 and 122 and 127
  cell number, CA, AVR: 136.3
  cell number, DG, AVR: 348.7
  cell number, ENT, AVR: 92
[1]; [2]
  cell number, CA (individual animals #1-#3): 113 and 165 and 131
  cell number, DG (Dentate Gyrus) (individual animals #1-#3): 406 and 289 and 351
  cell number, ENT (Entorhinal Cortex) (individual animals #1-#3): 94 and 89 and 93
[1]; [3]
  survival of calbindin-positive neurons in the entorhinal cortex: somewhat increased
  survival rates of granule cells in the dentate gyrus regions, increase: doubled; also recorded: two times
  survival rates of pyramidal cells in the CA1 region, increase: 2.5 times
PC12 cells; [4]
  Average (O.D. relative to dexamethasone alone): 111%
  O.D.: 0.214
PC12 cells; [5]
  Average (O.D. relative to dexamethasone alone): 127%
  O.D.: 0.245
PC12 cells; [6]
  Average (O.D. relative to dexamethasone alone): 132%
  O.D.: 0.253
PC12 cells; dexamethasone stress, 2 days
  cell survival rate increase: about 1.3 times
